“Also recorded” adds a separate entry of the source.
Tests used:
[1] = target: CXCR4 (Homo sapiens, UniProt P61073); experiment: Tag-Lite CXCR4 binding assay (displacement of fluorescent SDF-1α)
Description: Binding activity was measured using the Cisbio Tag-Lite Chemokine CXCR4 system (CisBio, Bedford, MA). […] Following three-hour incubation, HTRF measurements were taken using the BMG LABTECH CLARIOstar Plus (BMG LABTECH Inc., Cary, NC) with emission signals set to the Cisbio Tag-Lite Binding Assay supplier guidelines. HTRF ratio calculations completed according to supplier guidelines.

[2] = test system: diabetic wounds in Db mice; experiment: Angiogenesis in diabetic wounds, CD31 immunohistochemistry at 7 days; format: in vivo
Description: (§1) The ability of compound UCUF-728 to improve diabetic wound healing in vivo was examined. Full-thickness excisional 8 mm wounds were created in Db mice and were immediately treated with 10 μM UCUF-728 or phosphate-buffered saline (PBS) control. Wound healing over the course of 22 days was monitored. Initial wound size was calculated immediately after wounding, and wound closure was assessed over time as the percentage of initial wound area. […] The effect of UCUF-728 treatment on angiogenesis was assessed using immunohistochemistry for endothelial marker CD31. Representative photos of immunoperoxidase staining for CD31 at 7 days in diabetic wounds treated with PBS or UCUF-728 are shown in FIG. 8A.
All animal experiments were approved by the Institutional Animal Care and Use Committee at the University of Colorado Denver—Anschutz Medical Campus, and experimental protocols followed the guidelines described in the NIH Guide for the Care and Use of Laboratory Animals. […] Mice pictures were taken every other day, wound size was analyzed by Image J. A full-thickness skin sample, centered on the wound, was harvested 3 and 7 days after surgery (n=5 per timepoint).
The effect of UCUF-965 treatment on angiogenesis was assessed using immunohistochemistry for the endothelial marker CD31. […] Quantification of the staining was obtained.

[3] = test system: diabetic wounds in Db mice; experiment: Diabetic wound healing, full-thickness excisional 8 mm wounds in Db mice; format: in vivo; settings: for reduction of wound closure time vs PBS: 10 μM; for wound surface area vs PBS: post-injury day 6
Description: as §1
The ability of UCUF-965, a thiadiazine compound, to improve diabetic wound healing in vivo was examined. Full-thickness excisional 8 mm wounds were created in Db mice and were immediately treated with 10 μM UCUF-965 or PBS control. Wound healing over the course of 22 days was monitored. Initial wound size was calculated immediately after wounding, and wound closure was assessed over time as the percentage of initial wound area. FIG. 13 indicated the wound healing effect of UCUF-965 topical administration on excision wound model on different days after injury. […] UCUF-965-treated diabetic wounds closed around 14 days after treatment whereas control PBS-treated wounds healed at day 22. UCUF-965 is a promising positive allosteric modulator of CXCR4 signaling to treat diabetic would healing.
All animal experiments were approved by the Institutional Animal Care and Use Committee at the University of Colorado Denver—Anschutz Medical Campus, and experimental protocols followed the guidelines described in the NIH Guide for the Care and Use of Laboratory Animals. In these experiments, 10 week old, female, genetically diabetic C57BKS.Cg-m/Leprdb/J (Db) mice and heterozygous, non-diabetic (non-Db), age-matched female controls from the Jackson Laboratory (Bar Harbor, ME) were used. Mice were anesthetized with inhaled isoflurane. Each mouse was shaved and depilated before wounding. The dorsal skin was swabbed with alcohol and Betadine (Purdue Pharma, Stamford, CT). Each mouse received a single, full-thickness dorsal wound (including panniculus carnosum) with an 8-mm punch biopsy (Miltex Inc, York, PA). After wounding, a Hamilton syringe was used to deliver 50 μL of either 10 uM test compound or PBS, as a control. 10 μL were injected intradermally at 12, 3, 6 and 9 o'clock and at the wound base. […] Mice pictures were taken every other day, wound size was analyzed by Image J. A full-thickness skin sample, centered on the wound, was harvested 3 and 7 days after surgery (n=5 per timepoint).

Chain of CXCR4 (P61073 whole entry): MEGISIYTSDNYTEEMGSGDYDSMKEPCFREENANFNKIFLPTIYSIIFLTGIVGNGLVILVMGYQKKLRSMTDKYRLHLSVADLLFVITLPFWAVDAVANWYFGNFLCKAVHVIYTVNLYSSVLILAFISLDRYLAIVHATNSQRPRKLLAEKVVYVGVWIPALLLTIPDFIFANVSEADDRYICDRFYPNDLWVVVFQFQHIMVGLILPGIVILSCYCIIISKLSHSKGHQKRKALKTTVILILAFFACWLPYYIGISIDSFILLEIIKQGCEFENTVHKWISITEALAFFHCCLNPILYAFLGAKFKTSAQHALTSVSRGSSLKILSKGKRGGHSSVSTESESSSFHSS

`COc1ccc(OC)c(NS(=O)(=O)c2ccc(-c3cnc(C4CC4)o3)cc2)c1` [Oxazole Entry 19, 4-(2-Cyclopropyloxazol-5-yl)-N-(2,5-dimethoxyphenyl)benzenesulfonamide] was tested, and the “displacement of SDF-1α binding” value ([1]; listed as UCUF-728) was “did not displace SDF-1α binding; also recorded: did not displace SDF-1a saturation binding”, the “number of vessels (CD31 staining) vs PBS” value ([2]; listed as UCUF-728) was “significant increase in the number of vessels; also recorded: enhanced angiogenesis” and the “reduction of wound closure time vs PBS” value [3] was 36%. For the same compound, the “wound surface area vs PBS” value [3] was “decrease in wound surface area”.
For `CCOc1ccccc1-c1nnc2n1N=C(c1ccc(N3CCCC3)cc1)CS2` [Thiadiazine Entry 23, 3-(2-ethoxyphenyl)-6-(4-(pyrrolidin-1-yl)phenyl)-7H-[1,2,4]triazolo[3,4-b][1,3,4]thiadiazine], the “displacement of SDF-1α binding” value ([1]; listed as UCUF-965) was “did not displace fluorescently labelled SDF-1α binding; also recorded: did not displace SDF-1α saturation binding; also recorded: did not competitively displace”, the “number of vessels (CD31 staining) vs PBS” value ([2]; listed as UCUF-965) was “enhanced angiogenesis markers; also recorded: significantly increased the number of vessels” and the “reduction of wound closure time vs PBS” value [3] was 36%. The “wound surface area vs PBS” value [3] was “decrease in wound surface area”.
